Test results as given in ChEMBL document CHEMBL5034010, “Novel Cephalosporin Conjugates Display Potent and Selective Inhibition of Imipenemase-Type Metallo-β-Lactamases” (J Med Chem, 2021).
Converted amounts (≈) assume the structure as drawn. The source made the active and inactive calls. The rule behind the calls is not given here.

Columns and labels:
[1] = tested on: Enterobacter cloacae; experiment: Antibacterial activity against beta-lactamase IMP1 producing Enterobacter cloacae clinical isolate measured upto 128 ug/ml; format: functional, organism-based
[2] = tested on: Escherichia coli; experiment: Inhibition of Metallo-beta-lactamase NDM-1 in Escherichia coli clinical isolate assessed as MIC for meropenem antibacterial activity at 64 ug/ml (reference value: 32 ug/ml); conditions: dose 64.0 µg/ml
[3] = tested on: Escherichia coli; experiment: Inhibition of Metallo-beta-lactamase VIM-2 in Escherichia coli clinical isolate assessed as fold reduction in meropenem MIC at 32 ug/ml; conditions: dose 32.0 µg/ml
[4] = Inhibition of Escherichia coli beta-lactamase NDM-1 using nitrocefin chromogenic substrate measured after 15 to 60 min at 25 degC by microplate reader
[5] = tested on: Enterobacter cloacae; experiment: Inhibition of Metallo-beta-lactamase IMP-1 in Enterobacter cloacae clinical isolate assessed as fold reduction in meropenem MIC at 32 ug/ml; conditions: dose 32.0 µg/ml
[6] = tested on: Enterobacter cloacae; experiment: Inhibition of Metallo-beta-lactamase IMP-1 in Enterobacter cloacae clinical isolate assessed as MIC for meropenem antibacterial activity at 128 ug/ml (Rvb =16 ug/ml); conditions: dose 128.0 µg/ml
[7] = tested on: Escherichia coli; experiment: Inhibition of Metallo-beta-lactamase NDM-1 in Escherichia coli clinical isolate assessed as fold reduction in meropenem MIC at 32 ug/ml; conditions: dose 32.0 µg/ml
[8] = tested on: Escherichia coli; experiment: Inhibition of Metallo-beta-lactamase VIM-2 in Escherichia coli clinical isolate assessed as fold reduction in meropenem MIC at 128 ug/ml; conditions: dose 128.0 µg/ml
[9] = tested on: Klebsiella pneumoniae; experiment: Inhibition of Metallo-beta-lactamase IMP-28 in Klebsiella pneumoniae clinical isolate assessed as MIC for meropenem antibacterial activity at 32 ug/ml (reference value: 4 ug/ml); conditions: dose 32.0 µg/ml
[10] = tested on: Enterobacter cloacae; experiment: Inhibition of Metallo-beta-lactamase IMP-1 in Enterobacter cloacae clinical isolate assessed as MIC for meropenem antibacterial activity at 32 ug/ml (Rvb =16 ug/ml); conditions: dose 32.0 µg/ml
[11] = Stability of the compound in Muller hinton broth assessed compound remaining measured after 15 hrs by HPLC analysis; format: physicochemical; conditions: Mueller Hinton broth, read-out: Stability
[12] = tested on: Escherichia coli; experiment: Inhibition of Metallo-beta-lactamase NDM-1 in Escherichia coli clinical isolate assessed as fold reduction in meropenem MIC at 64 ug/ml; conditions: dose 64.0 µg/ml
[13] = tested on: Escherichia coli; experiment: Inhibition of Metallo-beta-lactamase VIM-2 in Escherichia coli clinical isolate assessed as MIC for meropenem antibacterial activity at 64 ug/ml (reference value: 8 ug/ml); conditions: dose 64.0 µg/ml
[14] = tested on: Escherichia coli; experiment: Inhibition of Metallo-beta-lactamase NDM-1 in Escherichia coli clinical isolate assessed as MIC for meropenem antibacterial activity at 32 ug/ml (reference value: 32 ug/ml); conditions: dose 32.0 µg/ml
[15] = tested on: Enterobacter cloacae; experiment: Inhibition of Metallo-beta-lactamase IMP-1 in Enterobacter cloacae clinical isolate assessed as fold reduction in meropenem MIC at 64 ug/ml; conditions: dose 64.0 µg/ml
[16] = tested on: Klebsiella pneumoniae; experiment: Inhibition of Metallo-beta-lactamase IMP-28 in Klebsiella pneumoniae clinical isolate assessed as fold reduction in meropenem MIC at 128 ug/ml; conditions: dose 128.0 µg/ml
[17] = tested on: Escherichia coli; experiment: Inhibition of Metallo-beta-lactamase NDM-1 in Escherichia coli clinical isolate assessed as fold reduction in meropenem MIC at 128 ug/ml; conditions: dose 128.0 µg/ml
[18] = tested on: Escherichia coli; experiment: Antibacterial activity against beta-lactamase VIM2 producing Escherichia coli clinical isolate measured upto 128 ug/ml; format: functional, organism-based
[19] = tested on: Escherichia coli; experiment: Inhibition of Metallo-beta-lactamase VIM-2 in Escherichia coli clinical isolate assessed as MIC for meropenem antibacterial activity at 128 ug/ml (reference value: 8 ug/ml); conditions: dose 128.0 µg/ml
[20] = tested on: Escherichia coli; experiment: Inhibition of Metallo-beta-lactamase VIM-2 in Escherichia coli clinical isolate assessed as fold reduction in meropenem MIC at 64 ug/ml; conditions: dose 64.0 µg/ml
[21] = tested on: Klebsiella pneumoniae; experiment: Inhibition of Metallo-beta-lactamase IMP-28 in Klebsiella pneumoniae clinical isolate assessed as fold reduction in meropenem MIC at 32 ug/ml; conditions: dose 32.0 µg/ml
[22] = tested on: Klebsiella pneumoniae; experiment: Antibacterial activity against beta-lactamase IMP-28 producing Klebsiella pneumoniae clinical isolate measured upto 128 ug/ml; format: functional, organism-based
[23] = tested on: Escherichia coli; experiment: Inhibition of Metallo-beta-lactamase VIM-2 in Escherichia coli clinical isolate assessed as MIC for meropenem antibacterial activity at 32 ug/ml (reference value: 8 ug/ml); conditions: dose 32.0 µg/ml
[24] = tested on: Klebsiella pneumoniae; experiment: Inhibition of Metallo-beta-lactamase IMP-28 in Klebsiella pneumoniae clinical isolate assessed as fold reduction in meropenem MIC at 64 ug/ml; conditions: dose 64.0 µg/ml
[25] = Inhibition of Enterobacter cloacae IMP-1 using nitrocefin chromogenic substrate measured after 15 to 60 min at 25 degC by microplate reader
[26] = tested on: Escherichia coli; experiment: Antibacterial activity against beta-lactamase NDM1 producing Escherichia coli clinical isolate measured upto 128 ug/ml; format: functional, organism-based
[27] = tested on: Klebsiella pneumoniae; experiment: Inhibition of Metallo-beta-lactamase IMP-28 in Klebsiella pneumoniae clinical isolate assessed as MIC for meropenem antibacterial activity at 128 ug/ml (reference value: 4 ug/ml); conditions: dose 128.0 µg/ml
[28] = tested on: Escherichia coli; experiment: Inhibition of Metallo-beta-lactamase NDM-1 in Escherichia coli clinical isolate assessed as MIC for meropenem antibacterial activity at 128 ug/ml (reference value: 32 ug/ml); conditions: dose 128.0 µg/ml
[29] = tested on: Enterobacter cloacae; experiment: Inhibition of Metallo-beta-lactamase IMP-1 in Enterobacter cloacae clinical isolate assessed as MIC for meropenem antibacterial activity at 64 ug/ml (Rvb =16 ug/ml); conditions: dose 64.0 µg/ml
[30] = tested on: Enterobacter cloacae; experiment: Inhibition of Metallo-beta-lactamase IMP-1 in Enterobacter cloacae clinical isolate assessed as fold reduction in meropenem MIC at 128 ug/ml; conditions: dose 128.0 µg/ml
[31] = Inhibition of Klebsiella pneumoniae beta-lactamase IMP-28 using nitrocefin chromogenic substrate measured after 15 to 60 min at 25 degC by microplate reader
[32] = tested on: Klebsiella pneumoniae; experiment: Inhibition of Metallo-beta-lactamase IMP-28 in Klebsiella pneumoniae clinical isolate assessed as MIC for meropenem antibacterial activity at 64 ug/ml (reference value: 4 ug/ml); conditions: dose 64.0 µg/ml
[33] = Inhibition of Escherichia coli beta-lactamase VIM-2 using nitrocefin chromogenic substrate measured after 15 to 60 min at 25 degC by microplate reader
[34] = tested on: Klebsiella pneumoniae; experiment: Substrate activity at Klebsiella pneumoniae beta-lactamase IMP-28 assessed as compound hydrolysis by measuring Kcat/Km by Michaelis-Menten analysis
[35] = tested on: Enterobacter cloacae; experiment: Inhibition of Metallo-beta-lactamase IMP-1 in Enterobacter cloacae clinical isolate assessed as MIC for meropenem antibacterial activity at 32 ug/ml (reference value: 32 ug/ml); conditions: dose 32.0 µg/ml
[36] = tested on: Enterobacter cloacae; experiment: Inhibition of Metallo-beta-lactamase IMP-1 in Enterobacter cloacae clinical isolate assessed as MIC for meropenem antibacterial activity at 64 ug/ml (reference value: 32 ug/ml); conditions: dose 64.0 µg/ml
[37] = tested on: Klebsiella pneumoniae; experiment: Substrate activity at Klebsiella pneumoniae beta-lactamase IMP-28 assessed as compound hydrolysis by measuring Km by Michaelis-Menten analysis
[38] = tested on: Klebsiella pneumoniae; experiment: Inhibition of Metallo-beta-lactamase IMP-28 in Klebsiella pneumoniae clinical isolate assessed as MIC for meropenem antibacterial activity at 128 ug/ml (reference value: 2 ug/ml); conditions: dose 128.0 µg/ml
[39] = tested on: Escherichia coli; experiment: Inhibition of Metallo-beta-lactamase VIM-2 in Escherichia coli clinical isolate assessed as MIC for meropenem antibacterial activity at 32 ug/ml (reference value: 4 ug/ml); conditions: dose 32.0 µg/ml
[40] = tested on: Escherichia coli; experiment: Inhibition of Metallo-beta-lactamase VIM-2 in Escherichia coli clinical isolate assessed as MIC for meropenem antibacterial activity at 64 ug/ml (reference value: 4 ug/ml); conditions: dose 64.0 µg/ml
[41] = tested on: Klebsiella pneumoniae; experiment: Substrate activity at Klebsiella pneumoniae beta-lactamase IMP-28 assessed as compound hydrolysis by measuring Kcat by Michaelis-Menten analysis
[42] = tested on: Klebsiella pneumoniae; experiment: Inhibition of Metallo-beta-lactamase IMP-28 in Klebsiella pneumoniae clinical isolate assessed as MIC for meropenem antibacterial activity at 64 ug/ml (reference value: 2 ug/ml); conditions: dose 64.0 µg/ml
[43] = tested on: Enterobacter cloacae; experiment: Inhibition of Metallo-beta-lactamase IMP-1 in Enterobacter cloacae clinical isolate assessed as MIC for meropenem antibacterial activity at 128 ug/ml (reference value: 32 ug/ml); conditions: dose 128.0 µg/ml
[44] = tested on: Klebsiella pneumoniae; experiment: Inhibition of Metallo-beta-lactamase IMP-28 in Klebsiella pneumoniae clinical isolate assessed as MIC for meropenem antibacterial activity at 32 ug/ml (reference value: 2 ug/ml); conditions: dose 32.0 µg/ml
[45] = tested on: Escherichia coli; experiment: Inhibition of Metallo-beta-lactamase VIM-2 in Escherichia coli clinical isolate assessed as MIC for meropenem antibacterial activity at 128 ug/ml (reference value: 4 ug/ml); conditions: dose 128.0 µg/ml
[46] = Stability of the compound assessed as Klebsiella pneumoniae beta-lactamase IMP-28-mediated degradation by measuring appearance of vinyl protons release measured after 120 mins by NMR spectra; format: ADME; conditions: 2 h

In the case of `O=C(Cc1ccccc1)N[C@@H]1C(=O)N2C(C(=O)O)=C(CSCC(=O)c3ccccc3)CS[C@H]12`, the Activity [1] is reported as “inactive”, the MIC [2] is reported as 8 µg/mL (≈ 16.6 µM) and the fold change (FC) [3] is reported as 1. For the same compound, the IC50 [4] was 77 µM, the fold change (FC) [5] was 2 and the MIC [6] was 4 µg/mL (≈ 8.29 µM). It also gave a fold change (FC) [7] of 2, a fold change (FC) [8] of 2 and an MIC [9] of 1 µg/mL (≈ 2.07 µM). The MIC [10] was 8 µg/mL (≈ 16.6 µM), the remaining at 15 h [11] was greater than 95% and the fold change (FC) [12] was 4. The MIC [13] was 4 µg/mL (≈ 8.29 µM), the MIC [14] was 16 µg/mL (≈ 33.2 µM) and the fold change (FC) [15] was 2. The fold change (FC) [16] was 16, the fold change (FC) [17] was 4 and the Activity [18] was “inactive”. It also gave an MIC [19] of 4 µg/mL (≈ 8.29 µM), a fold change (FC) [20] of 2 and a fold change (FC) [21] of 4. The Activity [22] was “inactive”, the MIC [23] was 8 µg/mL (≈ 16.6 µM) and the fold change (FC) [24] was 8. For the same compound, the IC50 [25] was 3.3 µM, the Activity [26] was “inactive” and the MIC [27] was 0.25 µg/mL (≈ 0.518 µM). It also gave an MIC [28] of 8 µg/mL (≈ 16.6 µM), an MIC [29] of 8 µg/mL (≈ 16.6 µM) and a fold change (FC) [30] of 4. For the same compound, the IC50 [31] was 14 µM, the MIC [32] was 0.5 µg/mL (≈ 1.04 µM) and the IC50 [33] was 76 µM.
With `O=C(Cc1ccccc1)N[C@@H]1C(=O)N2C(C(=O)O)=C(CSCc3ccccc3)CS[C@H]12` the Activity [1] was “inactive”, the MIC [2] was 16 µg/mL (≈ 35.2 µM) and the fold change (FC) [3] was 2. The fold change (FC) [5] was 4, the fold change (FC) [7] was 2 and the fold change (FC) [8] was 4. It also gave a fold change (FC) [12] of 2, a kcat/Km [34] of 529000 M⁻¹ s⁻¹ and an MIC [35] of 8 µg/mL (≈ 17.6 µM). The MIC [36] was 8 µg/mL (≈ 17.6 µM), the MIC [14] was 16 µg/mL (≈ 35.2 µM) and the fold change (FC) [15] was 4. For the same compound, the fold change (FC) [16] was 8, the fold change (FC) [17] was 2 and the Activity [18] was “inactive”. For the same compound, the Km [37] was 20.5 µM, the fold change (FC) [20] was 2 and the fold change (FC) [21] was 4. For the same compound, the MIC [38] was 0.25 µg/mL (≈ 0.55 µM), the Activity [22] was “inactive” and the fold change (FC) [24] was 8. The IC50 [25] was 43 µM, the Activity [26] was “inactive” and the MIC [39] was 2 µg/mL (≈ 4.4 µM). For the same compound, the MIC [40] was 2 µg/mL (≈ 4.4 µM), the kcat [41] was 10.8 s⁻¹ and the MIC [42] was 0.25 µg/mL (≈ 0.55 µM). The MIC [28] was 16 µg/mL (≈ 35.2 µM), the fold change (FC) [30] was 8 and the IC50 [31] was 45 µM. It also gave an MIC [43] of 4 µg/mL (≈ 8.8 µM), an MIC [44] of 0.5 µg/mL (≈ 1.1 µM) and an MIC [45] of 1 µg/mL (≈ 2.2 µM). For the same compound, the IC50 [33] was 73 µM.
For `CC(=O)OCC1=C(C(=O)O)N2C(=O)[C@@H](NC(=O)Cc3ccccc3)[C@H]2SC1` [CEFALORAM], the Stability [46] was “Unstable”.
